22 compounds from patent publication US11512053B2, “Arginine methyltransferase inhibitors and uses thereof” (priority 2013, dated 2022) can be followed below.

For this assay, the target named is T1, full-length human PRMT3 isoform 1 (GST-tagged) (Homo sapiens, UniProt O60678).
T1 construct: GST-tagged PRMT3; made in house; host or cells: E. coli BL21(DE3) Gold
In words: PRMT3 Biochemical Assay (3H-SAM Flashplate, peptide substrate). An excerpt:
General Materials. S-adenosylmethionine (SAM), S-adenosylhomocysteine (SAH), bicine, Tween20, dimethylsulfoxide (DMSO), bovine skin gelatin (BSG),), isopropyl-β-D-thiogalactopyranoside (IPTG), and Tris(2-carboxyethyl)phosphine hydrochloride solution (TCEP) were purchased from Sigma-Aldrich at the highest level of purity possible. ^3H-SAM was purchase from American Radiolabeled Chemicals with a specific activity of 80 Ci/mmol. 384-well streptavidin Flashplates were purchased from PerkinElmer.
Substrates. Peptide containing the classic RMT substrate motif was synthesized with an N-terminal linker-affinity tag motif and a C-terminal amide cap by 21st Century Biochemicals. The peptide was purified by high-performance liquid chromatography (HPLC) to greater than 95% purity and confirmed by liquid chromatography mass spectrometry (LC-MS). The sequence was Biot-Ahx-[…]-amide (SEQ ID NO.:11).
Molecular Biology: Full-length human PRMT3 (NM_005788.3) isoform 1 transcript clone was amplified from an HEK 293 cDNA library and subcloned into pGEX-KG (GE Life Sciences). The resulting construct encodes an N-terminal GST tag and a thrombin cleavage sequence ([…] […] […] […] S) (SEQ ID NO.:12) fused directly to Cys 2 of PRMT3.
Protein Expression. E. coli (BL21(DE3) Gold, Stratagene) made competent by the CaCl2) method were transformed with the PRMT3 construct and ampicillin selection. Protein over-expression was accomplished by growing the PRMT3 expressing E. coli clone and inducing expression with 0.3 mM IPTG at 16° C. The culture was grown for 12 hours, harvested by centrifugation, and stored at −80° C. for purification.
Protein Purification. […] GST-tagged PRMT3 was eluted with 50 mM Tris, 2 mM glutathione, pH 7.1 and 50 mM Tris, 20 mM glutathione, pH 7.1. Pooled fractions were dialysed in 20 mM Tris, 50 mM NaCl, 5% glycerol, 1 mM EDTA, 1 mM DTT, pH7.5 (Buffer B) and applied to a Q Sepharose Fast Flow column. GST-tagged PRMT3 was eluted by 500 mM NaCl in buffer B. Pooled fractions were dialyzed in 25 mM phosphate buffer, 100 mM NaCl, 5% glycerol, 2 mM DTT, pH 6.8 (Buffer C) and loaded on to a ceramic hydroxyapatite column. GST-tagged PRMT3 eluted with 25-400 mM phosphate in buffer C. Protein was concentrated and buffer was exchanged to 20 mM Tris, 150 mM NaCl, 5% glycerol, 5 mM β-mercaptoethanol, pH7.8 by ultrafiltration. The purity of recovered protein was 70%.
General Procedure for PRMT3 Enzyme Assays on Peptide Substrates. The assays were all performed in a buffer consisting of 20 mM Bicine (pH=7.6), 1 mM TCEP, 0.005% BSG, and 0.002% Tween 20, prepared on the day of use. Compounds in 100% DMSO (1 ul) were spotted into a polypropylene 384-well V-bottom plates (Greiner) using a Platemate Plus outfitted with a 384-channel head (Thermo Scientific). DMSO (1 ul) was added to Columns 11, 12, 23, 24, rows A-H for the maximum signal control and 1 ul of SAH, a known product and inhibitor of PRMT3, was added to columns 11, 12, 23, 24, rows I-P for the minimum signal control. A cocktail (40 ul) containing the PRMT3 enzyme was added by Multidrop Combi (Thermo-Fisher). The compounds were allowed to incubate with PRMT3 for 30 min at room temperature, then a cocktail (10 ul) containing SAM and peptide was added to initiate the reaction (final volume=51 ul). The final concentrations of the components were as follows: PRMT3 was 0.5 nM, ^3H-SAM was 100 nM, non-radiolabeled SAM was 1.8 uM, peptide was 330 nM, SAH in the minimum signal control wells was 1 mM, and the DMSO concentration was 2%. The assays were stopped by the addition of potassium chloride (10 ul) to a final concentration of 100 mM. 50 ul of the reaction in the 384-well polypropylene plate was then transferred to a 384-well Flashplate and the biotinylated peptides were allowed to bind to the streptavidin surface for at least 1 hour before being washed once with 0.1% Tween20 in a Biotek ELx405 plate washer. […]

[1] abbreviates: single experiment or average of multiple experiments.

Like-named read-outs stand apart in the source and are kept apart here. Some results are limits rather than exact numbers.

T1 sequence (O60678 with tags, fused parts or gaps): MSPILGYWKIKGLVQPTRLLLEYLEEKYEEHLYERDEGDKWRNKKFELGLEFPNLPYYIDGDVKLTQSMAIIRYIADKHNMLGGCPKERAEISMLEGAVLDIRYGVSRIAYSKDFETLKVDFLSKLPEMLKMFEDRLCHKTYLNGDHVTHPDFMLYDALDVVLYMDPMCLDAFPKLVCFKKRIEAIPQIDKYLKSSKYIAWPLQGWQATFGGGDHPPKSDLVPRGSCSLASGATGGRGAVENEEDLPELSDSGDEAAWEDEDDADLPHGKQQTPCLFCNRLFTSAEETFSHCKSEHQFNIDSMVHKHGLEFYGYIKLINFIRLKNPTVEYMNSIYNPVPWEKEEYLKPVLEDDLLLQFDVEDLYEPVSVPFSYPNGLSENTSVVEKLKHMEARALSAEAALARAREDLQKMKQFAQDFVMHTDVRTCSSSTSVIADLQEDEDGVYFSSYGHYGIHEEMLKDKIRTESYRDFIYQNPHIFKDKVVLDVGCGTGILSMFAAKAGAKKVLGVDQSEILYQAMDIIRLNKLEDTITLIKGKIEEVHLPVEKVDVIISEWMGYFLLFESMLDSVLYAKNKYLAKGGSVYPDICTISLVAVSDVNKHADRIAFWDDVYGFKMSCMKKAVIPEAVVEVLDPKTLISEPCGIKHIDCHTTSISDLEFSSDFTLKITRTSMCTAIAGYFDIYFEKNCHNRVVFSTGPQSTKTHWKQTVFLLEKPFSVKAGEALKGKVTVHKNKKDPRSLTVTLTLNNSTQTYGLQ

As for `CNCCN(C)Cc1c[nH]nc1C#Cc1cccc(OC)c1` [Compound 1], the IC50 under setting [1] worked out at 6.83 µM. That is a single-digit micromolar value.
On to `CN(CCN)Cc1c[nH]nc1/C=C/c1cccc(F)c1` [Compound 20], for which, under setting [1], it took 2.34 µM to reach half-maximal inhibition (IC50). Against the preceding compound, the IC50 is about 2.9-fold lower.
On the same count and under the same terms, then `CN(CCN)Cc1c[nH]nc1CCc1ccc(F)cc1` [Compound 23, N^1-((3-(4-fluorophenethyl)-1H-pyrazol-4-yl)methyl)-N^1-methylethane-1,2-diamine], with 9.65 µM; and `CN(CCN)Cc1c[nH]nc1/C=C/c1ccc(F)cc1F` [Compound 13], with 3.62 µM; and `CNCCN(C)Cc1c[nH]nc1/C=C/c1ccc(OC)cc1` [Compound 7], with 5.91 µM.
As to `CN(CCN)Cc1c[nH]nc1/C=C/Cc1ccccc1` [Compound 24], the IC50 was > 10 µM. Further, under setting [1], the IC50 was > 10 µM.
Take `CNCCN(C)Cc1c[nH]nc1C#Cc1ccc(F)cc1` [Compound 4]: the concentration for half-maximal inhibition (IC50) was > 10 µM. For the same compound, the IC50 under setting [1] is > 10 µM.
`COC/C=C/c1n[nH]cc1CN(C)CCN` [Compound 19] had an IC50 under setting [1] of 7.74 µM.
For the compound `CN(CCN)Cc1c[nH]nc1/C=C/c1ccc(C(F)(F)F)cc1` [Compound 18], 1.75 µM corresponded to half-maximal inhibition under setting [1] (IC50).
`COc1cc(/C=C/c2n[nH]cc2CN(C)CCN)cc(OC)c1` [Compound 11] had an IC50 under setting [1] of 1.58 µM. This IC50 and that of the compound before are within 1.5-fold of each other.
`CNCCN(C)Cc1c[nH]nc1C#Cc1ccc(C(C)(C)C)cc1` [Compound 2] had an IC50 under setting [1] of 3 µM.
Turning to `CNCCN(C)Cc1c[nH]nc1/C=C/c1ccc(C(F)(F)F)cc1` [Compound 6], the IC50 under setting [1] stood at 3.94 µM.
For the compound `CN(CCN)Cc1c[nH]nc1C1=CCOCC1` [Compound 10], the half-maximal inhibitory concentration (IC50) is > 10 µM. Under setting [1], the IC50 was > 10 µM.
Compound `CN(CCN)Cc1c[nH]nc1C1CCCCC1` [Compound 22] displayed an IC50 under setting [1] of 6.46 µM.
Turning to `COc1cccc(/C=C/c2n[nH]cc2CN(C)CCN)c1` [Compound 17], half-maximal inhibition under setting [1] (IC50) required 2.36 µM.
Same read-out and setting: the value for `CN(CCN)Cc1c[nH]nc1/C=C/c1cccc(C(F)(F)F)c1` [Compound 16] was 5.79 µM.
Turning to `CNCCN(C)Cc1c[nH]nc1/C=C/c1ccc(-c2ccccc2)cc1` [Compound 5], the 50% inhibitory concentration (IC50) under setting [1] was found to be 1.45 µM.
As to `CN(CCN)Cc1c[nH]nc1/C=C/c1cc(F)cc(F)c1` [Compound 15], the IC50 under setting [1] was 2.34 µM.
Take `Cc1ccc(/C=C/c2n[nH]cc2CN(C)CCN)cc1` [Compound 8]: under setting [1], the concentration for half-maximal inhibition (IC50) is 5.81 µM.
On to `CN(CCN)Cc1c[nH]nc1C1CC1` [Compound 12], for which the IC50 was > 10 µM. Under setting [1], the IC50 is > 10 µM.
For `CN(CCN)Cc1c[nH]nc1/C=C/c1cc(C(F)(F)F)cc(C(F)(F)F)c1` [Compound 14], under setting [1], 6.77 µM corresponded to half-maximal inhibition (IC50). This counts as single-digit micromolar.
For `CC(C)c1n[nH]cc1CN(C)CCN` [Compound 21], the IC50 is > 10 µM. Besides, the concentration for half-maximal inhibition (IC50) under setting [1] was > 10 µM.
